Results: the supplement of paper PMC10307832

Columns and labels:
Test in all cases: relative viability (nuclei count vs DMSO), 5 days (fraction); higher = more cells survive
[1] = tested on: RERF-LC-KJ
How it was run: (§1)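 Lung cancer cell lines in 1536-well plates were dosed by pin tool the day after seeding, either with one drug alone or with a fixed anchor-drug dose plus five library-drug doses (not always all listed) in √10 steps. After 5 days, cells were fixed and their nuclei stained in one step (final 0.05% Triton X-100, 1% formaldehyde, 1 ug/ml Hoechst), then counted on 4× images. Relative viability is the nuclei count in treated wells divided by that in vehicle wells. Values are medians of duplicate plates.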

[2] = tested on: LCLC-103H
How it was run: as §1

[3] = tested on: NCI-H1563
How it was run: as §1

[4] = tested on: SW 900
How it was run: as §1

[5] = tested on: NCI-H520
How it was run: as §1

[6] = tested on: NCI-H522
How it was run: as §1

[7] = tested on: LXF-289
How it was run: as §1

[8] = tested on: NCI-H441
How it was run: as §1

[9] = tested on: NCI-H1792
How it was run: as §1

[10] = tested on: PC-14
How it was run: as §1

[11] = tested on: NCI-H1355
How it was run: as §1

[12] = tested on: NCI-H322M
How it was run: as §1

[13] = tested on: NCI-H460
How it was run: as §1

[14] = tested on: NCI-H2170
How it was run: as §1

[15] = tested on: NCI-H1651
How it was run: as §1

[16] = tested on: NCI-H650
How it was run: as §1

[17] = tested on: NCI-H2347
How it was run: as §1

[18] = tested on: NCI-H1755
How it was run: as §1

[19] = tested on: SK-MES-1
How it was run: as §1

[20] = tested on: NCI-H596
How it was run: as §1

[21] = tested on: NCI-H661
How it was run: as §1

[22] = tested on: NCI-H1915
How it was run: as §1

[23] = tested on: NCI-H3122
How it was run: as §1

SMILES: Clc1ccc(Nc2nnc(Cc3ccncc3)c3ccccc23)cc1 [Vatalanib] + Nc1nc2[nH]cc(CCc3ccc(C(=O)N[C@@H](CCC(=O)O)C(=O)O)cc3)c2c(=O)[nH]1 [Pemetrexed] (partner 0.2 µM)
- relative viability ([1]; first compound 0.04 µM): 0.489
- relative viability ([1]; first compound 0.1265 µM): 0.476
- relative viability ([1]; first compound 0.4 µM): 0.484
- relative viability ([1]; first compound 1.265 µM): 0.502
- relative viability ([1]; first compound 4 µM): 0.458
- relative viability ([2]; first compound 0.04 µM): 0.343
- relative viability ([2]; first compound 0.1265 µM): 0.428
- relative viability ([2]; first compound 0.4 µM): 0.449
- relative viability ([2]; first compound 1.265 µM): 0.487
- relative viability ([2]; first compound 4 µM): 0.453
- relative viability ([3]; first compound 0.04 µM): 0.804
- relative viability ([3]; first compound 0.1265 µM): 0.772
- relative viability ([3]; first compound 0.4 µM): 0.857
- relative viability ([3]; first compound 1.265 µM): 0.758
- relative viability ([3]; first compound 4 µM): 0.77
- relative viability ([4]; first compound 0.04 µM): 0.476
- relative viability ([4]; first compound 0.1265 µM): 0.471
- relative viability ([4]; first compound 0.4 µM): 0.467
- relative viability ([4]; first compound 1.265 µM): 0.478
- relative viability ([4]; first compound 4 µM): 0.464
- relative viability ([5]; first compound 0.04 µM): 0.676
- relative viability ([5]; first compound 0.1265 µM): 0.654
- relative viability ([5]; first compound 0.4 µM): 0.751
- relative viability ([5]; first compound 1.265 µM): 0.625
- relative viability ([5]; first compound 4 µM): 0.62
- relative viability ([6]; first compound 0.04 µM): 0.923
- relative viability ([6]; first compound 0.1265 µM): 0.861
- relative viability ([6]; first compound 0.4 µM): 1.24
- relative viability ([6]; first compound 1.265 µM): 0.86
- relative viability ([6]; first compound 4 µM): 0.945
- relative viability ([7]; first compound 0.04 µM): 0.887
- relative viability ([7]; first compound 0.1265 µM): 0.879
- relative viability ([7]; first compound 0.4 µM): 0.955
- relative viability ([7]; first compound 1.265 µM): 0.908
- relative viability ([7]; first compound 4 µM): 0.822
- relative viability ([8]; first compound 0.04 µM): 0.249
- relative viability ([8]; first compound 0.1265 µM): 0.215
- relative viability ([8]; first compound 0.4 µM): 0.257
- relative viability ([8]; first compound 1.265 µM): 0.265
- relative viability ([8]; first compound 4 µM): 0.274
- relative viability ([9]; first compound 0.04 µM): 0.902
- relative viability ([9]; first compound 0.1265 µM): 0.781
- relative viability ([9]; first compound 0.4 µM): 0.771
- relative viability ([9]; first compound 1.265 µM): 0.817
- relative viability ([9]; first compound 4 µM): 0.699
- relative viability ([10]; first compound 0.04 µM): 0.135
- relative viability ([10]; first compound 0.1265 µM): 0.125
- relative viability ([10]; first compound 0.4 µM): 0.125
- relative viability ([10]; first compound 1.265 µM): 0.129
- relative viability ([10]; first compound 4 µM): 0.129
- relative viability ([11]; first compound 0.04 µM): 0.965
- relative viability ([11]; first compound 0.1265 µM): 1.01
- relative viability ([11]; first compound 0.4 µM): 1.08
- relative viability ([11]; first compound 1.265 µM): 0.979
- relative viability ([11]; first compound 4 µM): 0.936
- relative viability ([12]; first compound 0.04 µM): 0.609
- relative viability ([12]; first compound 0.1265 µM): 0.656
- relative viability ([12]; first compound 0.4 µM): 0.678
- relative viability ([12]; first compound 4 µM): 0.572
- relative viability ([13]; first compound 0.04 µM): 0.0651
- relative viability ([13]; first compound 0.1265 µM): 0.0511
- relative viability ([13]; first compound 0.4 µM): 0.0612
- relative viability ([13]; first compound 1.265 µM): 0.0684
- relative viability ([13]; first compound 4 µM): 0.0605
- relative viability ([14]; first compound 0.04 µM): 0.328
- relative viability ([14]; first compound 0.1265 µM): 0.289
- relative viability ([14]; first compound 0.4 µM): 0.273
- relative viability ([14]; first compound 1.265 µM): 0.292
- relative viability ([14]; first compound 4 µM): 0.261
- relative viability ([15]; first compound 0.04 µM): 0.512
- relative viability ([15]; first compound 0.1265 µM): 0.558
- relative viability ([15]; first compound 0.4 µM): 0.496
- relative viability ([15]; first compound 1.265 µM): 0.543
- relative viability ([15]; first compound 4 µM): 0.526
- relative viability ([16]; first compound 0.04 µM): 0.931
- relative viability ([16]; first compound 0.1265 µM): 0.833
- relative viability ([16]; first compound 0.4 µM): 1.03
- relative viability ([16]; first compound 1.265 µM): 0.885
- relative viability ([16]; first compound 4 µM): 0.996
- relative viability ([17]; first compound 0.04 µM): 0.444
- relative viability ([17]; first compound 0.1265 µM): 0.419
- relative viability ([17]; first compound 0.4 µM): 0.43
- relative viability ([17]; first compound 1.265 µM): 0.487
- relative viability ([17]; first compound 4 µM): 0.41
- relative viability ([18]; first compound 0.04 µM): 0.4
- relative viability ([18]; first compound 0.1265 µM): 0.504
- relative viability ([18]; first compound 0.4 µM): 0.461
- relative viability ([18]; first compound 1.265 µM): 0.416
- relative viability ([18]; first compound 4 µM): 0.38
- relative viability ([19]; first compound 0.04 µM): 0.905
- relative viability ([19]; first compound 0.1265 µM): 0.925
- relative viability ([19]; first compound 0.4 µM): 1.05
- relative viability ([19]; first compound 1.265 µM): 0.912
- relative viability ([19]; first compound 4 µM): 0.787
- relative viability ([20]; first compound 0.04 µM): 0.482
- relative viability ([20]; first compound 0.1265 µM): 0.488
- relative viability ([20]; first compound 0.4 µM): 0.524
- relative viability ([20]; first compound 1.265 µM): 0.514
- relative viability ([20]; first compound 4 µM): 0.47
- relative viability ([21]; first compound 0.04 µM): 0.868
- relative viability ([21]; first compound 0.1265 µM): 0.906
- relative viability ([21]; first compound 0.4 µM): 0.996
- relative viability ([21]; first compound 1.265 µM): 0.905
- relative viability ([21]; first compound 4 µM): 0.936
- relative viability ([22]; first compound 0.04 µM): 0.505
- relative viability ([22]; first compound 0.1265 µM): 0.558
- relative viability ([22]; first compound 0.4 µM): 0.53
- relative viability ([22]; first compound 1.265 µM): 0.477
- relative viability ([22]; first compound 4 µM): 0.498
- relative viability ([23]; first compound 0.04 µM): 0.195
- relative viability ([23]; first compound 0.1265 µM): 0.19
- relative viability ([23]; first compound 0.4 µM): 0.191
- relative viability ([23]; first compound 1.265 µM): 0.199
- relative viability ([23]; first compound 4 µM): 0.189
